Assay [1] relates to IL-6 in A549 cells. In words: Cell-based IL-6 ELISA assay in IL-1beta stimulated A549 cells. As to conditions: 2 ng/ml human IL-1beta overnight. The method, then:
The cell-based assays is based on IL-6 ELISA quantification. Briefly, A549 cells are cultured in DMEM with 10% FBS medium. When cells reach 80% confluence they are trypsin treated and seeded 180 ul/well in 96-well plate at 2.5×10^4 cells/well. Then, 20 ul of compound serial dilutions (starting at 10 uM, 10 points) are added to the cell plate; incubate for 30 min at 37 C and stimulated with 2 ng/ml human IL-1beta 37 C, 5% CO2 overnight. The next day 100 ul of cell supernatant per well are analyzed on a Human IL-6 Quantikine ELISA kit from R&D Systems.
A general note: In an ELISA, binding on a coated surface is turned into a signal by an enzyme label.

Assay [2] deals with IRAK4 (Homo sapiens (Human), UniProt Q9NWZ3). In words: IRAK-4 AlphaScreen biochemical kinase assay. As to conditions: 1 nM IRAK4, 1 mM ATP, 3.5 h at RT. The gist of the method:
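AlphaScreen read-out: streptavidin beads bind the biotinylated peptide and protein A beads bind the anti-phosphothreonine antibody, so energy transfer reports phosphorylation of the peptide. The kinase is human IRAK-4.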
In general terms: In Alpha technology, singlet oxygen from a donor bead excites a nearby acceptor bead.

IRAK4, sequence (Q9NWZ3 whole entry, species assumed): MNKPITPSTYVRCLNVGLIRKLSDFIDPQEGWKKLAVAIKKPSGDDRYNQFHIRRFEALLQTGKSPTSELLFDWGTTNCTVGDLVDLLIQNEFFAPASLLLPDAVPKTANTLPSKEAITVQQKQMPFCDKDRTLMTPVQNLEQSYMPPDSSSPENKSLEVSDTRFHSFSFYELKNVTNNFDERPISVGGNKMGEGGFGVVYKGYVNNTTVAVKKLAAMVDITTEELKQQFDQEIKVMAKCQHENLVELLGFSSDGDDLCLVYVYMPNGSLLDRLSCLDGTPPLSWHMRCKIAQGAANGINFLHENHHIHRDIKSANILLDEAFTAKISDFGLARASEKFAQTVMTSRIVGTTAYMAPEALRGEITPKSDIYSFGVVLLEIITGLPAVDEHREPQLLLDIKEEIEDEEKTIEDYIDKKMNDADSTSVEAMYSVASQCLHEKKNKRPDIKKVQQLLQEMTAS

Regarding `CCC[C@H](N)c1cccc(-c2cc(N3CCCC(O)C3)c3cnn(-c4cccc(CO)n4)c3c2)n1` (stereo partly drawn) [Example 330, 1-(6-(6-((S)-1-aminobutyl)pyridin-2-yl)-1-(6-(hydroxymethyl)pyridin-2-yl)-1H-indazol-4-yl)piperidin-3-ol], the EC50 – broadly, the concentration at which the effect is half-maximal – in assay [1] was at most 1 µM. The IC50 (commonly the concentration that gives 50% inhibition) in assay [2] is below 0.1 µM.
Taken in the same sequence, the figures for `CCC[C@H](N)c1cccc(-c2cc(N3CC(F)(F)C3)c3cnn(-c4cccc(CO)n4)c3c2)n1` [Example 331, (S)-(6-(6-(6-(1-aminobutyl)pyridin-2-yl)-4-(3,3-difluoroazetidin-1-yl)-1H-indazol-1-yl)pyridin-2-yl)methanol] were at most 1 µM and below 0.1 µM.
In the same order, the values of `CCC[C@H](N)c1cccc(-c2cc(N3CC(CO)(CCl)C3)c3cnn(-c4cccc(CO)n4)c3c2)n1` [Example 332, (S)-(1-(6-(6-(1-aminobutyl)pyridin-2-yl)-1-(6-(hydroxymethyl)pyridin-2-yl)-1H-indazol-4-yl)-3-(chloromethyl)azetidin-3-yl)methanol] are at most 1 µM and below 0.1 µM.
In the same order, the values of `CCC[C@H](N)c1cccc(-c2cc(N3CCC(F)(F)C3)c3cnn(-c4cccc(CO)n4)c3c2)n1` [Example 333, (S)-(6-(6-(6-(1-aminobutyl)pyridin-2-yl)-4-(3,3-difluoropyrrolidin-1-yl)-1H-indazol-1-yl)pyridin-2-yl)methanol] are at most 1 µM and below 0.1 µM.
The molecule `CCC[C@H](N)c1cccc(-c2cc(N3CCOC(C)C3)c3cnn(-c4cccc(CO)n4)c3c2)n1` (stereo partly drawn) [Example 334, (6-(6-(6-((S)-1-aminobutyl)pyridin-2-yl)-4-(2-methylmorpholino)-1H-indazol-1-yl)pyridin-2-yl)methanol] had a concentration giving a half-maximal response (EC50) in assay [1] of at most 1 µM. The IC50 in assay [2] was below 0.1 µM.
Taken in the same sequence, the figures for `CCC[C@H](N)c1cccc(-c2cc(N3CC(C)OC(C)C3)c3cnn(-c4cccc(CO)n4)c3c2)n1` (stereo partly drawn) [Example 335, (6-(6-(6-((S)-1-aminobutyl)pyridin-2-yl)-4-(2,6-dimethylmorpholino)-1H-indazol-1-yl)pyridin-2-yl)methanol] were at most 1 µM and below 0.1 µM.
As for `CCC[C@H](N)c1cccc(-c2cc(NCC(CCl)C(=O)O)c3cnn(-c4cccc(CO)n4)c3c2)n1` (stereo partly drawn) [Example 336, 3-((6-(6-((S)-1-aminobutyl)pyridin-2-yl)-1-(6-(hydroxymethyl)pyridin-2-yl)-1H-indazol-4-yl)amino)-2-(chloromethyl)propanoic acid], the EC50 in assay [1] is at most 1 µM. The IC50 in assay [2] was below 0.1 µM.
Taken in the same sequence, the figures for `CCC[C@H](N)c1cccc(-c2cc(N3CCS(=O)(=O)CC3)c3cnn(-c4cccc(CO)n4)c3c2)n1` [Example 337, (S)-4-(6-(6-(1-aminobutyl)pyridin-2-yl)-1-(6-(hydroxymethyl)pyridin-2-yl)-1H-indazol-4-yl)thiomorpholine 1,1-dioxide] were at most 1 µM and below 0.1 µM.
Turning to `CCC[C@H](N)c1cccc(-c2cc(N3CCSCC3)c3cnn(-c4cccc(CO)n4)c3c2)n1` [Example 338, (S)-(6-(6-(6-(1-aminobutyl)pyridin-2-yl)-4-thiomorpholino-1H-indazol-1-yl)pyridin-2-yl)methanol], in assay [1], the EC50 is at most 1 µM. Also, in assay [2], the IC50 was below 0.1 µM.
Taken in the same sequence, the figures for `CCC[C@H](N)c1cccc(-c2cc(N3CC(C)(C)C3)c3cnn(-c4cccc(CO)n4)c3c2)n1` [Example 340, (S)-(6-(6-(6-(1-aminobutyl)pyridin-2-yl)-4-(3,3-dimethylazetidin-1-yl)-1H-indazol-1-yl)pyridin-2-yl)methanol] were at most 1 µM and below 0.1 µM.
Taken in the same sequence, the figures for `CCC[C@H](N)c1cccc(-c2cc(N3CCC(C(=O)O)C3)c3cnn(-c4cccc(CO)n4)c3c2)n1` (stereo partly drawn) [Example 341, 1-(6-(6-((S)-1-aminobutyl)pyridin-2-yl)-1-(6-(hydroxymethyl)pyridin-2-yl)-1H-indazol-4-yl)pyrrolidine-3-carboxylic acid] were at most 1 µM and below 0.1 µM.
For `CCC[C@H](N)c1cccc(-c2cc(N3CCCC3)c3cnn(-c4cccc(CO)n4)c3c2)n1` [Example 342, (S)-(6-(6-(6-(1-aminobutyl)pyridin-2-yl)-4-(pyrrolidin-1-yl)-1H-indazol-1-yl)pyridin-2-yl)methanol], the EC50 in assay [1] was at most 1 µM. The same molecule registered an IC50 in assay [2] below 0.1 µM.
Taken in the same sequence, the figures for `CCC[C@H](N)c1cccc(-c2cc(N3CCN(C)CC3)c3cnn(-c4cccc(CO)n4)c3c2)n1` [Example 343, (S)-(6-(6-(6-(1-aminobutyl)pyridin-2-yl)-4-(4-methylpiperazin-1-yl)-1H-indazol-1-yl)pyridin-2-yl)methanol] were at most 1 µM and below 0.1 µM.
In the same order, the values of `CCC[C@H](N)c1cccc(-c2cc(NCC(C)(C)CCl)c3cnn(-c4cccc(CO)n4)c3c2)n1` [Example 344, (S)-(6-(6-(6-(1-aminobutyl)pyridin-2-yl)-4-((3-chloro-2,2-dimethylpropyl)amino)-1H-indazol-1-yl)pyridin-2-yl)methanol] are at most 1 µM and below 0.1 µM.
Taken in the same sequence, the figures for `CCC[C@H](N)c1cccc(-c2cc(N3CCC(F)(F)CC3)c3cnn(-c4cccc(CO)n4)c3c2)n1` [Example 346, (S)-(6-(6-(6-(1-aminobutyl)pyridin-2-yl)-4-(4,4-difluoropiperidin-1-yl)-1H-indazol-1-yl)pyridin-2-yl)methanol] were at most 1 µM and below 0.1 µM.
As for `CCC[C@H](N)c1cccc(-c2cc(N3CCCC(F)(F)C3)c3cnn(-c4cccc(CO)n4)c3c2)n1` [Example 347, (S)-(6-(6-(6-(1-aminobutyl)pyridin-2-yl)-4-(3,3-difluoropiperidin-1-yl)-1H-indazol-1-yl)pyridin-2-yl)methanol], the EC50 in assay [1] was at most 1 µM. For the same molecule, the IC50 in assay [2] was below 0.1 µM.
Taken in the same sequence, the figures for `CCC[C@H](N)c1cccc(-c2cc(N3CC(C(=O)O)C3)c3cnn(-c4cccc(CO)n4)c3c2)n1` [Example 348, (S)-1-(6-(6-(1-aminobutyl)pyridin-2-yl)-1-(6-(hydroxymethyl)pyridin-2-yl)-1H-indazol-4-yl)azetidine-3-carboxylic acid] were at most 1 µM and below 0.1 µM.
In assay [1], `CCC[C@H](N)c1cccc(-c2cc(N3CCCC(C(=O)O)C3)c3cnn(-c4cccc(CO)n4)c3c2)n1` (stereo partly drawn) [Example 349, 1-(6-(6-((S)-1-aminobutyl)pyridin-2-yl)-1-(6-(hydroxymethyl)pyridin-2-yl)-1H-indazol-4-yl)piperidine-3-carboxylic acid] returned an EC50 of at most 1 µM. The same molecule showed an IC50 in assay [2] below 0.1 µM.
`CCC[C@H](N)c1cccc(-c2cc(N3CCC(C(=O)O)CC3)c3cnn(-c4cccc(CO)n4)c3c2)n1` [Example 350, (S)-1-(6-(6-(1-aminobutyl)pyridin-2-yl)-1-(6-(hydroxymethyl)pyridin-2-yl)-1H-indazol-4-yl)piperidine-4-carboxylic acid] came in with an EC50 in assay [1] of 1 to 10 µM. Besides, the half-maximal inhibitory concentration (IC50) in assay [2] is below 0.1 µM.
`C[C@H](N)c1cccc(-c2cc(-n3ccnc3)c3cnn(-c4cccc(CO)n4)c3c2)n1` [Example 354, (S)-(6-(6-(6-(1-aminoethyl)pyridin-2-yl)-4-(1H-imidazol-1-yl)-1H-indazol-1-yl)pyridin-2-yl)methanol]: in assay [1], the EC50 was at most 1 µM. In assay [2], the IC50 was below 0.1 µM.
Taken in the same sequence, the figures for `C[C@H](N)c1cccc(-c2cc(-n3cncn3)c3cnn(-c4cccc(CO)n4)c3c2)n1` [Example 355, (S)-(6-(6-(6-(1-aminoethyl)pyridin-2-yl)-4-(1H-1,2,4-triazol-1-yl)-1H-indazol-1-yl)pyridin-2-yl)methanol] were at most 1 µM and below 0.1 µM.
Taken in the same sequence, the figures for `C[C@H](N)c1cccc(-c2cc(-n3ccc(C(F)(F)F)n3)c3cnn(-c4cccc(CO)n4)c3c2)n1` [Example 356, (S)-(6-(6-(6-(1-aminoethyl)pyridin-2-yl)-4-(3-(trifluoromethyl)-1H-pyrazol-1-yl)-1H-indazol-1-yl)pyridin-2-yl)methanol] were 1 to 10 µM and below 0.1 µM.
In the same order, the values of `C[C@H](N)c1cccc(-c2cc(-c3ccn(C)n3)c3cnn(-c4cccc(CO)n4)c3c2)n1` [Example 357, (S)-(6-(6-(6-(1-aminoethyl)pyridin-2-yl)-4-(1-methyl-1H-pyrazol-3-yl)-1H-indazol-1-yl)pyridin-2-yl)methanol] are at most 1 µM and below 0.1 µM.
For `C[C@H](N)c1cccc(-c2cc(-c3ncco3)c3cnn(-c4cccc(CO)n4)c3c2)n1` [Example 359, (S)-(6-(6-(6-(1-aminoethyl)pyridin-2-yl)-4-(oxazol-2-yl)-1H-indazol-1-yl)pyridin-2-yl)methanol], the EC50 in assay [1] is at most 1 µM. In assay [2], this molecule had an IC50 below 0.1 µM.
On to `CC[C@H](N)c1cccc(-c2cc(-c3ccn(C)n3)c3cnn(-c4cccc(CO)n4)c3c2)n1` [Example 360, (S)-(6-(6-(6-(1-aminopropyl)pyridin-2-yl)-4-(1-methyl-1H-pyrazol-3-yl)-1H-indazol-1-yl)pyridin-2-yl)methanol], for which the EC50 in assay [1] is at most 1 µM. This molecule also showed an IC50 in assay [2] below 0.1 µM.
In the same order, the values of `CCC[C@H](N)c1cccc(-c2cc(-c3ccn(C)n3)c3cnn(-c4cccc(CO)n4)c3c2)n1` [Example 361] are at most 1 µM and below 0.1 µM.
In the same order, the values of `Cc1nnc(-c2cc(-c3cccc([C@H](C)N)n3)cc3c2cnn3-c2cccc(CO)n2)s1` [Example 362, (S)-(6-(6-(6-(1-aminoethyl)pyridin-2-yl)-4-(5-methyl-1,3,4-thiadiazol-2-yl)-1H-indazol-1-yl)pyridin-2-yl)methanol] are at most 1 µM and below 0.1 µM.

These data come from patent US10246456B2, “IRAK4 inhibiting agents” (BIOGEN MA INC., priority 2014, dated 2019).
